According to BindingDB's records for patent US11414428 (Auckland UniServices Limited, 2022):

Molecular target: Indoleamine 2,3-dioxygenase 1 (Homo sapiens, UniProt P14902)
Assay: Enzymatic Assay
Experimental: Recombinant human IDO1 (rhIDO1) was expressed and purified from cultures of EC538 strain of E. coli transformed with pREP4 and pQE9-IDO plasmid. Reaction mixes were set up in 384-well microplates containing 50 mM phosphate buffer, 10 mM ascorbic, 10 μM methylene blue, 100 μg/mL catalase, 80 μM TRP, 0.01% Tween 20 (v/v) mixed with rhIDO1 (15 μL) at a final concentration of 9 nM in a total volume of 30 μL assay medium. The plates were incubated at 37° C. for 30 min, and the enzymatic reaction was terminated by adding piperidine (200 mM) and heated at 65° C. for 20 min. Fluorescence intensity was read at λex 400 nm and λem 500 nm. Test compounds were dissolved in 100% DMSO and pre-diluted in assay medium prior to adding rhIDO1.

Chain of Indoleamine 2,3-dioxygenase 1 (P14902 whole entry): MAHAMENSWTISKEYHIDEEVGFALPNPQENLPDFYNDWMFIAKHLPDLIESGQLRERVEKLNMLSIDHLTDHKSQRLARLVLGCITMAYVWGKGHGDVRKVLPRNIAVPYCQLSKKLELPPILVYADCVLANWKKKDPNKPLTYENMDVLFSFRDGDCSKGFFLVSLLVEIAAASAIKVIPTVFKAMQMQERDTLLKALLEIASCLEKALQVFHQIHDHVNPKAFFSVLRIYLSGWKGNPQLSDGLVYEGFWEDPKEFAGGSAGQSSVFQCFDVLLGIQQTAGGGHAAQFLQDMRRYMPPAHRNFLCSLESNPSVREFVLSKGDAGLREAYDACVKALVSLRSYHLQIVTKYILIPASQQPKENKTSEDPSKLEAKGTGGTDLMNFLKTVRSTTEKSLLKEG

IC50: in the range around 5.5 µM
Compound: Cc1nc2onc(N)c2c(C)c1Cl [US11414428, Compound 1]
